# Measured values reported in ChEMBL document CHEMBL1150620, “Two new minor polybrominated dibenzo-p-dioxins from the marine sponge Dysidea dendyi” (J Nat Prod, 2002).
# Experiment: Inhibition of cell division of Strongylocentrotus intermedius fertilized eggs
# Format: functional, Egg
row,SMILES,IC50 [µM]
1,Oc1c(Br)c(Br)cc2c1Oc1cc(Br)cc(Br)c1O2 [SPONGIADIOXIN B],1.1
2,Oc1cc(Br)c(Br)c2c1Oc1cc(Br)cc(Br)c1O2 [SPONGIADIOXIN A],4.8
3,Oc1cc(Br)cc2c1Oc1cc(Br)cc(Br)c1O2 [SPONGIADIOXIN C],5.7
4,COc1cc(Br)cc(Br)c1Oc1cc(Br)cc(Br)c1O,4.7
5,COc1cc(Br)c(Br)c2c1Oc1cc(Br)cc(Br)c1O2 [SPONGIADIOXIN A METHYL ETHER],141
6,COc1cc(Br)cc2c1Oc1cc(Br)cc(Br)c1O2 [SPONGIADIOXIN C METHYL ETHER],166
7,COc1c(Br)cc(Br)cc1Oc1ccc(Br)cc1Br,145
8,COc1c(Br)c(Br)cc2c1Oc1cc(Br)cc(Br)c1O2 [SPONGIADIOXIN B METHYL ETHER],94
9,COc1cc(Br)cc(Br)c1Oc1cc(Br)cc(Br)c1OC,137
